We go through six compounds from ChEMBL document CHEMBL4052696, “Varic acid analogues from fungus as PTP1B inhibitors: Biological evaluation and structure-activity relationships” (Bioorg Med Chem Lett, 2017).

Bounds are passed on as bounds.

In data set [1] the target is T1, Tyrosine-protein phosphatase non-receptor type 1 (Homo sapiens, UniProt P18031).
T1 sequence (P18031 whole entry): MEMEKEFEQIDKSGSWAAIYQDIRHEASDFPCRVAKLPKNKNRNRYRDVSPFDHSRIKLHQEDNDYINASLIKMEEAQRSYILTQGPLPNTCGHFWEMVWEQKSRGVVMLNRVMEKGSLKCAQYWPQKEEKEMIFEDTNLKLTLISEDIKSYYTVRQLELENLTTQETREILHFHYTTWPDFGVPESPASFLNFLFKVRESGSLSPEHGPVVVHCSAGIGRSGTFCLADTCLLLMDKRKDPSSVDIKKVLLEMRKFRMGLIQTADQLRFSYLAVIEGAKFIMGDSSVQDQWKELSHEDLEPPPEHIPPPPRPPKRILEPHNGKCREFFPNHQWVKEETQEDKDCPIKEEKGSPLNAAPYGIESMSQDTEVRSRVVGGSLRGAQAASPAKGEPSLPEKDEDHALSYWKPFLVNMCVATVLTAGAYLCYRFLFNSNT
In words: Inhibition of PTP1B (unknown origin) using p-nitrophenyl phosphate substrate incubated for 30 mins.

Data set [2] concerns the target Receptor-type tyrosine-protein phosphatase F (Homo sapiens, UniProt P10586). The data set is described as follows: Inhibition of PTPLAR (unknown origin) using p-nitrophenyl phosphate substrate incubated for 30 mins.
Data set [3] has as its target T2, Tyrosine-protein phosphatase non-receptor type 2 (Homo sapiens, UniProt P17706).
T2 sequence (P17706 whole entry): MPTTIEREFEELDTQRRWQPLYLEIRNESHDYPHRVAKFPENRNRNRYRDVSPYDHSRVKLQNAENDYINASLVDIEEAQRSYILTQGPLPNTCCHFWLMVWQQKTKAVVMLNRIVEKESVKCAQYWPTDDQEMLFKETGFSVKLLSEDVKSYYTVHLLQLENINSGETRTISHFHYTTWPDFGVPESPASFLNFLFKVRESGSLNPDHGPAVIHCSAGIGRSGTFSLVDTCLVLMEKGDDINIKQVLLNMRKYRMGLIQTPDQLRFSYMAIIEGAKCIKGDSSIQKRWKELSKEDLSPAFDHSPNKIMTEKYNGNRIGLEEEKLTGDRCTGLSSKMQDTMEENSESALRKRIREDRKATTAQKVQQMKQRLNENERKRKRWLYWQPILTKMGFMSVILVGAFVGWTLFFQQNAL
The data set is described as follows: Inhibition of TCPTP (unknown origin) using p-nitrophenyl phosphate substrate incubated for 30 mins.

In data set [4] the target is T3, Tyrosine-protein phosphatase non-receptor type 11 (Homo sapiens, UniProt Q06124).
T3 sequence (Q06124 whole entry): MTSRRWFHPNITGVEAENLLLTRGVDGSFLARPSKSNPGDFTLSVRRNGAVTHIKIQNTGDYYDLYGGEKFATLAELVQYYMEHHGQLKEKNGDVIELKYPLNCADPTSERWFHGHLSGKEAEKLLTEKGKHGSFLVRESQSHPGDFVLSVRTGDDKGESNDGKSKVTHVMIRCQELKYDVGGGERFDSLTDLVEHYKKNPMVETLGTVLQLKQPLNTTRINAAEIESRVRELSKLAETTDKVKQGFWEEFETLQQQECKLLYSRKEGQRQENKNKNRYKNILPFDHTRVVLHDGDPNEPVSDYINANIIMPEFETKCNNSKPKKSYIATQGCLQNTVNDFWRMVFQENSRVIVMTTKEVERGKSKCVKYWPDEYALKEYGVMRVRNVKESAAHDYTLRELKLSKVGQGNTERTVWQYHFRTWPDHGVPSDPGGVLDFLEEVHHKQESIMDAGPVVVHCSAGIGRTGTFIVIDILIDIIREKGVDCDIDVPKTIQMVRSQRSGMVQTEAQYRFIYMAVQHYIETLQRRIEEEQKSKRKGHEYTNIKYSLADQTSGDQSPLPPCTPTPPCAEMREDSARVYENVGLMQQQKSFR
In words: Inhibition of SHP2 (unknown origin) using p-nitrophenyl phosphate substrate incubated for 30 mins.

Data set [5] has as its system Rattus norvegicus. In words: Toxicity in normal Wistar rat assessed as induction of hypoglycemia at 10 mg/kg, ip dosed 30 mins before insulin injection and measured 30 mins post insulin injection by glucose-oxidase assay. The class given is organism-based. The note with it: in vivo, 0.5 h.
Data set [6] deals with Rattus norvegicus. In words: Toxicity in type 2 diabetic Wistar rat assessed as induction of hypoglycemia at 10 mg/kg, ip dosed 30 mins before insulin injection and measured 30 mins post insulin injection by glucose-oxidase assay. The class given is organism-based. The note with it: in vivo, 0.5 h.

Receptor-type tyrosine-protein phosphatase F, sequence (P10586 whole entry): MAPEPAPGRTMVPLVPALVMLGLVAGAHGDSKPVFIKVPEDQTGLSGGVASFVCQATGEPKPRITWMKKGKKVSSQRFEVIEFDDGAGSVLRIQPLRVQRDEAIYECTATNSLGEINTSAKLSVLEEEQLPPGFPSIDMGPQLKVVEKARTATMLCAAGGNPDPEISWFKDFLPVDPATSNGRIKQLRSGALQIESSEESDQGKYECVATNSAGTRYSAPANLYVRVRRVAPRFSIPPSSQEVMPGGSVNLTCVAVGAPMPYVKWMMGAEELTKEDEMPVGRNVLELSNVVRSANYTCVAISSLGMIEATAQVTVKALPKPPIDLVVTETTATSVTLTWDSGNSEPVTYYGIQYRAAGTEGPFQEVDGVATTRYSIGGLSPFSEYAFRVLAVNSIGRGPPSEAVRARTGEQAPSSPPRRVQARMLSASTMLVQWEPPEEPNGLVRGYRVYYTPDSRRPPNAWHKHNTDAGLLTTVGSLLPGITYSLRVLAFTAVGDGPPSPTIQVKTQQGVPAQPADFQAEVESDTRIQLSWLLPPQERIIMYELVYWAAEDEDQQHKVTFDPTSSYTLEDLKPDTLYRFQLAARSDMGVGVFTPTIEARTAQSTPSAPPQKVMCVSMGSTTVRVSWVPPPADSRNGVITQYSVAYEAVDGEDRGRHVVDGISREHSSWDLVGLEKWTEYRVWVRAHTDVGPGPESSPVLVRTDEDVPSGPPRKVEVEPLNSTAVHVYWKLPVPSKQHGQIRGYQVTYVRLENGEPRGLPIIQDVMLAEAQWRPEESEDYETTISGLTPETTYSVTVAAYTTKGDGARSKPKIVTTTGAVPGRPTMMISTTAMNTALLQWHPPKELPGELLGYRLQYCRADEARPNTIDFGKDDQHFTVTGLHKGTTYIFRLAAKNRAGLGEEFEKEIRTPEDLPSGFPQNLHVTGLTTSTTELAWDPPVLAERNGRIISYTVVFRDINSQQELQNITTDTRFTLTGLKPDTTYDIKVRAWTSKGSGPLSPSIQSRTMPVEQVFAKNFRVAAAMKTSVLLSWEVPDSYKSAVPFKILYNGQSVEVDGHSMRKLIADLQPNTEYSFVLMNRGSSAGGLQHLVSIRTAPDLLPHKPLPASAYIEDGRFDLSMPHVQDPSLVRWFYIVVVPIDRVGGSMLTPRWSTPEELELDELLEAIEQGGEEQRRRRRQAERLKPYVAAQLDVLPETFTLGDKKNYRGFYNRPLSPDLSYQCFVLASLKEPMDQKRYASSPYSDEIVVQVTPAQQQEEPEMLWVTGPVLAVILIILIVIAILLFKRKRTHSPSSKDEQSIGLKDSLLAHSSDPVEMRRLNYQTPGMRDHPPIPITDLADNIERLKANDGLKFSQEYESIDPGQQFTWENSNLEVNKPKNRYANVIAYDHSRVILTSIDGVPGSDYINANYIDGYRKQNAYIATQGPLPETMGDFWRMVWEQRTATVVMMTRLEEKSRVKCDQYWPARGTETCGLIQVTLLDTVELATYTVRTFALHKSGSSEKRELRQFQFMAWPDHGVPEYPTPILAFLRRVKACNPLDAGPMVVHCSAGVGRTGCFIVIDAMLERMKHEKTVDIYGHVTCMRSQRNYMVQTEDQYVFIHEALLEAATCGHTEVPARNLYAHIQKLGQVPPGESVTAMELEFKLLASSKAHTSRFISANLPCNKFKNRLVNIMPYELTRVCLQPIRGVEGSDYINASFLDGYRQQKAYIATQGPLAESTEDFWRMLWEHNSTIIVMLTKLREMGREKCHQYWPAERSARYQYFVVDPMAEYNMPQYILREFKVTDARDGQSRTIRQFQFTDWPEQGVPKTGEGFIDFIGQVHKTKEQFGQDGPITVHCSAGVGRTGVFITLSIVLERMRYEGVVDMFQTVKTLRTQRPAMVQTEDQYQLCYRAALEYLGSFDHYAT

In the case of `CCCc1cc(OC)cc(OC)c1C(=O)O`, the IC50 in data set [1], in data set [2], in data set [3] and in data set [4] was greater than 20 µM each time.

Turning to `CCC/C=C/C=C/CCc1cc(O)cc(O)c1C(=O)O`, the IC50 (usually the concentration that inhibits the measured activity by half) in data set [1] is 4.27 µM; in data set [2] it was greater than 20 µM; in data set [3], 4.74 µM; in data set [4], 0.18 µM.

`CCCc1cc(O)cc(O)c1C(=O)O`: the IC50 in data set [1] was 1.58 µM; in data set [2] it was greater than 20 µM; in data set [3] it was greater than 20 µM; in data set [4], 12.6 µM.

In the case of `CCCc1cc(OC(=O)c2c(O)cc(O)cc2CCC)cc(O)c1C(=O)O`, the IC50 is 0.51 µM in data set [1], greater than 20 µM in data set [2], greater than 20 µM in data set [3] and greater than 20 µM in data set [4].

Turning to `CCCc1cc(OC(=O)c2c(O)cc(OC(=O)c3c(O)cc(O)cc3CCC)cc2CCC)cc(O)c1C(=O)O`, the IC50 in data set [1] was 0.17 µM; in data set [2] it was greater than 20 µM; in data set [3], 17.7 µM; in data set [4] it was 2.73 µM. In addition, the Activity result in data set [5] and in data set [6] was “Non-Toxic” throughout.

`CCCc1cc(O)cc(OC(=O)c2c(O)cc(O)cc2CCC)c1`: the IC50 is 0.72 µM in data set [1], greater than 20 µM in data set [2], greater than 20 µM in data set [3] and 15 µM in data set [4].
